Assay results: patent US20250044279A1, “CYTOTOXICITY ASSAY FOR DETECTING CELLULAR DAMAGE” (priority 2023, published 2025)

What was measured:
C. albicans (SC5314) = assay: Infection of TR146-Nluc epithelial cells with C. albicans in the presence of antifungals; damage read out by Nluc and LDH in supernatant; assay type: cell-based; details: sub-MIC levels, supernatant 24 hours after infection; for protection of TR146-Nluc from C. albicans-induced cell damage, LDH assay: LDH readout, protective effect not reliably detected (FIG. 3D); for protection of TR146-Nluc from C. albicans-induced cell damage, Nluc assay: Nluc readout (FIG. 3D)
Procedure: (§1) In order to measure damage from cells seeded in 96-well plates, plates were centrifuged at 250×g for 10 minutes. Where indicated, 100 μl of supernatant was collected and stored at −20° C. for assaying on another day in the same week. For the luciferase assays, 5 μl supernatant was diluted with 95 μl PBS in white flat-opaque-bottomed 96-well plates (ThermoFisher). Then, 100 μl of 10 μM coelenterazine (in PBS) was added and luciferase activity measured immediately using a Tecan infinite M200 luminescence reader, with integration time of 100 ms and OD2 compensation. The OD2 neutral density filter attenuates high level light by a factor of 100.
The LDH cytotoxicity assay was performed according to instructions in the Roche Cytotoxicity Detection Kit with minor modifications. Briefly, 10 μl supernatant was diluted with 90 μl PBS in transparent-flat-bottomed 96-well plates, 100 μl of kit reagent mixture was added to each well, the plates were incubated in the dark for 15-20 minutes at room temperatures, and absorbance was measured with a Tecan absorbance reader at 492 nm (reference at 600 nm).
Infection of epithelial cells with Candida spp. strains Overnight cultures of Candida spp. strains in YPD, 1% peptone were diluted, washed in PBS, and counted using Neubauer counting chambers. The medium of confluent epithelial cells was replaced with a suspension of […] Candida spp. (MOI 1) in the appropriate cell culture medium (without FBS). The cells were incubated at 37° C. and 5% CO2 for 24 hours.
Stock solutions of the antifungal drugs, fluconazole (10 mg/ml) and voriconazole (10 mg/ml) were prepared in DMSO and stored at −20° C. A two-fold dilution series was prepared in DMEM/F12 cell culture medium for fluconazole (8-0.25 μg/ml) and voriconazole ([…]). Diluted drugs were transferred to TR146-Nluc cells seeded 48 hours prior, and infected with C. albicans (SC5314), as described above. Supernatant was collected 24 hours after infection to measure damage by LDH and Nluc.

Nluc = biological target: T1, Nluc (Oplophorus gracilirostris, UniProt Q9GV45, A31E/A60N/A81I/F95D/I117V/K70R/L54V/L99Q/M102K/N193R/P142E/Q151K/Q38R/Q45L/V71I/Y165I); assay: Effect of pyruvate on Nluc enzyme activity in TR146-Nluc cell lysate; assay type: biochemical; details: 16-0.5 mM dilution series (FIG. 4C)
T1 construct: expressed in transfected cells; host or cells: TR146 human oral epithelial cells, lentivirally transduced with pSEW-NanoLuc-IRES-PuroR (Nluc gene amplified from Addgene plasmid #67178), lysed in 1% Triton X-100 in PBS
Procedure: as §1
TR14-Nluc cells were detached with Accutase and resuspended in 5 ml PBS. Cells were counted and ≈1×10^4 cells/ml were resuspended in lysing buffer (1% Triton X-100 in PBS, pH 7.4).
To examine the effects of pyruvate on activity of LDH, a 2-fold dilution series for sodium pyruvate and lactate (16-0.5 mM) was prepared in lysis buffer, the lysate was incubated for 10 min at 37° C. and centrifuged at 10,000×g. The supernatant was collected to test LDH and luciferase enzyme activity.

T1 sequence (Q9GV45 other isoform, or with tags, fused parts or gaps with the stated changes): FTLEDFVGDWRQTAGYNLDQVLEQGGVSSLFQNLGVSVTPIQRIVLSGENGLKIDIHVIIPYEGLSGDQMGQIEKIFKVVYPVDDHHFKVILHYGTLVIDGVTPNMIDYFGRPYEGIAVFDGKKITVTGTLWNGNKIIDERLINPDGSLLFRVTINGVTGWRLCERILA

Structure (SMILES): OC(Cn1cncn1)(Cn1cncn1)c1ccc(F)cc1F [fluconazole]
- protection of TR146-Nluc from C. albicans-induced cell damage, LDH assay (C. albicans (SC5314)): not with LDH
- protection of TR146-Nluc from C. albicans-induced cell damage, Nluc assay (C. albicans (SC5314)): protective effect

Structure (SMILES): CC(=O)C(=O)[O-].[Na+] [pyruvate, sodium pyruvate]
- effect on Nluc enzyme activity (Nluc): no discernible effect

Structure (SMILES): C[C@@H](c1ncncc1F)[C@](O)(Cn1cncn1)c1ccc(F)cc1F [voriconazole]
- protection of TR146-Nluc from C. albicans-induced cell damage, LDH assay (C. albicans (SC5314)): not with LDH
- protection of TR146-Nluc from C. albicans-induced cell damage, Nluc assay (C. albicans (SC5314)): protective effect
